Measurements from patent US10227331B2 (priority 2015, dated 2019).

Legend:
[1] = test system: P. aeruginosa expressing IMP-1, efflux+ (MB9798); type: cell-based, Pseudomonas aeruginosa; settings: for P. aeruginosa expressing IMP-1, efflux+ (MB9798) MITC95: imipenem at 2 μg/mL, in the presence of a class A, C, D serine β-lactamase inhibitor closely related to relebactam; for Efflux ratio: ratio MITC95 PA_9798/MITC95 PA_9799
Excerpt: (§1) The strain background is Pseudomonas aeruginosa PAO1.

[2] = test system: Escherichia coli expressing NDM-1 (CLB30005, CLB30016); type: cell-based; settings: with imipenem 1 μg/ml, 95% inhibition of bacterial growth; for Escherichia coli MITC95: NDM-1 (CLB30016)
Method in brief: (§2)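 Colonies from overnight 35 °C blood-agar cultures were suspended in saline, diluted 1:100 into 1.1× CAMHB and exposed to test compound with or without imipenem at 1 μg/ml. After 22–24 h at 35 °C, absorbance was read to find the concentration restoring imipenem susceptibility.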

[3] = test system: Serratia marcescens expressing IMP-1 (CL5741); type: cell-based; settings: with imipenem 1 μg/ml, 95% inhibition of bacterial growth; for Serratia marcescens MITC95: IMP-1 (CL5741)
Method in brief: as §2

[4] = test system: Klebsiella pneumoniae expressing VIM-1 (IHMA599644); type: cell-based; settings: with imipenem 1 μg/ml, 95% inhibition of bacterial growth; for Klebsiella pneumoniae MITC95: VIM-1 (IHMA599644)
Method in brief: as §2

IMP-1 = IMP-1 (Serratia marcescens, UniProt P52699); assay: biochemical; type: biochemical; settings: CCF2-FA substrate, 2 hours at 25° C; read-out: IMP-1 IC50
Method in brief: (§3)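 Inhibitor was mixed with the metallo-β-lactamase and CCF2-FA. After 2 hours at 25° C, fluorescence of the coumarin–fluorescein cephalosporin substrate was read. IC50 was calculated with a 4-parameter fit.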

NDM-1 = NDM-1 (Klebsiella pneumoniae, UniProt C7C422); assay: biochemical; type: biochemical; settings: CCF2-FA substrate, 2 hours at 25° C; read-out: NDM-1 IC50
Method in brief: as §3

VIM-1 = VIM-1 (Pseudomonas aeruginosa (strain ATCC 15692 / DSM 22644 / CIP 104116 / JCM 14847 / LMG 12228 / 1C / PRS 101 / PAO1), UniProt A0A0F7KYQ8); assay: biochemical; settings: CCF2-FA substrate, 2 hours at 25° C
Method in brief: as §3

[5] = test system: P. aeruginosa expressing IMP-1, efflux− (MB9799); assay: Efflux: concentration of MBL inhibitor which restores susceptibility to imipenem; type: cell-based, Pseudomonas aeruginosa; settings: imipenem at 2 μg/mL, in the presence of a class A, C, D serine β-lactamase inhibitor closely related to relebactam
Excerpt: as §1

Chain of NDM-1 (C7C422 whole entry, looked up, species assumed): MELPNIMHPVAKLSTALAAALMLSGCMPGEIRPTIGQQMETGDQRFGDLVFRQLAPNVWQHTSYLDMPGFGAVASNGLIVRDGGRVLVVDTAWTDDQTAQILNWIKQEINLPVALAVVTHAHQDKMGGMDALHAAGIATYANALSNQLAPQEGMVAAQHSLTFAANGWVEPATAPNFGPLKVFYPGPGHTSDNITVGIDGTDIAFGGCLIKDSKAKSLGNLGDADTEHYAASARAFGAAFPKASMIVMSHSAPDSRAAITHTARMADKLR
Chain of IMP-1 (P52699 whole entry, looked up, species assumed): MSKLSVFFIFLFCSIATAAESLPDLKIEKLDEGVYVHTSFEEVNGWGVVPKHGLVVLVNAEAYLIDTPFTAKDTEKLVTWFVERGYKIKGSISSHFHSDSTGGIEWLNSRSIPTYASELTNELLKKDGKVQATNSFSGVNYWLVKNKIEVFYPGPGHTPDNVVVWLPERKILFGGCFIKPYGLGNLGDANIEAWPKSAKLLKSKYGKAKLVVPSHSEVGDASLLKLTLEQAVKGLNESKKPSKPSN

Row | SMILES | P. aeruginosa expressing IMP-1, efflux+ (MB9798) MITC95 [1] [µM] | Efflux ratio [1] | Escherichia coli MITC95 [2] [µM] | Serratia marcescens MITC95 [3] [µM] | Klebsiella pneumoniae MITC95 [4] [µM] | IC50 (IMP-1) [nM] | IC50 (NDM-1) [nM] | IC50 (VIM-1) [nM] | P. aeruginosa expressing IMP-1, efflux− (MB9799) MITC95 [5] [µM] | Escherichia coli expressing NDM-1 (CLB30016) MITC95 [2] [µM] | Serratia marcescens expressing IMP-1 (CL5741) MITC95 [3] [µM] | Klebsiella pneumoniae expressing VIM-1 (IHMA599644) MITC95 [4] [µM]
1 | NCCS(=O)(=O)c1ccc(-c2ccc(N)nc2)c(-c2nn[nH]n2)c1S(N)(=O)=O [Example 321, 6-((2-aminoethyl)sulfonyl)-3-(6-aminopyridin-3-yl)-2-(2H-tetrazol-5-yl) benzenesulfonamide] | 1.781 | 2.78 | 0.125 | 0.4453 | 1.281 | 0.949 | 1.36 | 1.01 | 0.6406 | – | – | –
2 | NCCS(=O)(=O)c1ccc(-c2c[nH]c3nccnc23)c(-c2nnn[nH]2)c1S(N)(=O)=O.O=C(O)C(F)(F)F [Example 136, 2-((4-(5H-pyrrolo[2,3-b]pyrazin-7-yl)-2-sulfamoyl-3-(1H-tetrazol-5-yl)phenyl)sulfonyl)ethanaminium 2,2,2-trifluoroacetate] | 12.5 | 16.00 | – | – | – | 1.72 | 2.14 | 1.19 | 0.7813 | 1.563 | 1.563 | 3.125
3 | CNc1nc2c(-c3ccc(S(=O)(=O)CCN)c(S(N)(=O)=O)c3-c3nn[nH]n3)cccc2s1 [Example 90, 6-(2-aminoethylsulfonyl)-3-(2-(methylamino)benzo[d]thiazol-4-yl)-2-(2H-tetrazol-5-yl)benzene sulfonamide] | 1.563 | 2.00 | – | – | – | 0.0995 | 0.0746 | 0.146 | 0.7813 | 0.7813 | 1.563 | 1.563
4 | Nc1nc2cc(C(F)(F)F)cc(-c3ccc(S(=O)(=O)C4CNC4)c(S(N)(=O)=O)c3-c3nnn[nH]3)c2[nH]1 [Example 260, 3-(2-amino-5-(trifluoromethyl)-1H-benzo[d]imidazol-7-yl)-6-(azetidin-3-ylsulfonyl)-2-(1H-tetrazol-5-yl)benzenesulfonamide] | 6.25 | 1.00 | 6.25 | 6.25 | 12.5 | 1.99 | 0.598 | 0.813 | 6.25 | – | – | –
5 | NC(=O)c1ccc(-c2ccc(S(=O)(=O)C3CNC3)c(S(N)(=O)=O)c2-c2nn[nH]n2)c2nc(N)sc12 [Example 39, 2-amino-4-(4-(azetidin-3-ylsulfonyl)-3-sulfamoyl-2-(2H-tetrazol-5-yl)phenyl)benzo[d]thiazole-7-carboxamide] | 0.7813 | 0.50 | – | – | – | 0.276 | 0.0303 | 0.129 | 1.563 | 1.563 | 3.125 | 3.125
6 | NCCS(=O)(=O)c1ccc(-c2ccc3oc(N)nc3c2)c(-c2nn[nH]n2)c1S(N)(=O)=O [Example 77, 3-(2-aminobenzo[d]oxazol-5-yl)-6-(2-aminoethylsulfonyl)-2-(2H-tetrazol-5-yl)benzenesulfonamide] | 6.25 | 8.00 | – | – | – | 1.13 | 1.05 | 0.385 | 0.7813 | 0.7813 | 1.563 | 1.563
